# Laboratory results: the supplement of paper PMC10307832
# Legend:
# Experiment in all cases: relative viability (nuclei count vs DMSO), 5 days (fraction); higher = more cells survive
# [1] = compound: COc1cc2ncn(-c3cc(OCc4ccccc4C(F)(F)F)c(C(N)=O)s3)c2cc1OC
# Procedure, shortened: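 Vehicle-anchored 1536-well plates of lung cancer cell lines, held overnight at 37 °C, were pinned with five library-drug doses (not always all listed) spaced by √10. No medium change followed over the next 5 days, after which the cells were fixed, permeabilised and Hoechst-stained together and imaged at 4×. Nuclei were counted with MetaXpress, and viability is treated-well nuclei over vehicle-well nuclei, taken as a median across plates. Plates passed with control CV below 25% and at least one doubling.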
# [2] = compound: COc1cc2ncn(-c3cc(OCc4ccccc4C(F)(F)F)c(C(N)=O)s3)c2cc1OC + Cc1cc(Nc2cc(N3CCN(C)CC3)nc(Sc3ccc(NC(=O)C4CC4)cc3)n2)n[nH]1 [Tozasertib] (partner 0.1 µM)
# Procedure, shortened: (§1)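 Relative viability equals treated-well nuclei counts divided by vehicle-well nuclei counts. Counts came from 4× images of lung cancer cell lines grown in 1536-well plates for 5 days after pin-tool dosing on the day after seeding. Dosing used one drug alone or a fixed anchor-drug dose plus five library-drug doses (not always all listed) in √10 steps, and values are medians of duplicate plates.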
# [3] = compound: COc1cc2ncn(-c3cc(OCc4ccccc4C(F)(F)F)c(C(N)=O)s3)c2cc1OC + COc1cc2c(Oc3ccc(NC(=O)C4(C(=O)Nc5ccc(F)cc5)CC4)cc3F)ccnc2cc1OCCCN1CCOCC1 [Foretinib] (partner 0.25 µM)
# Procedure, shortened: as §1
# [4] = compound: COc1cc2ncn(-c3cc(OCc4ccccc4C(F)(F)F)c(C(N)=O)s3)c2cc1OC + Nc1nc2[nH]cc(CCc3ccc(C(=O)N[C@@H](CCC(=O)O)C(=O)O)cc3)c2c(=O)[nH]1 [Pemetrexed] (partner 0.2 µM)
# Procedure, shortened: as §1
# [5] = compound: COc1cc2ncn(-c3cc(OCc4ccccc4C(F)(F)F)c(C(N)=O)s3)c2cc1OC + CC(=O)c1c(C)c2cnc(Nc3ccc(N4CCNCC4)cn3)nc2n(C2CCCC2)c1=O [Palbociclib] (partner 0.5 µM)
# Procedure, shortened: as §1
# [6] = compound: COc1cc2ncn(-c3cc(OCc4ccccc4C(F)(F)F)c(C(N)=O)s3)c2cc1OC + Cc1nc(Nc2ncc(C(=O)Nc3c(C)cccc3Cl)s2)cc(N2CCN(CCO)CC2)n1 [Dasatinib] (partner 0.075 µM)
# Procedure, shortened: as §1
# [7] = compound: COc1cc2ncn(-c3cc(OCc4ccccc4C(F)(F)F)c(C(N)=O)s3)c2cc1OC + O=C(c1cc(Cc2n[nH]c(=O)c3ccccc23)ccc1F)N1CCN(C(=O)C2CC2)CC1 [Olaparib] (partner 8 µM)
# Procedure, shortened: as §1
# [8] = compound: COc1cc2ncn(-c3cc(OCc4ccccc4C(F)(F)F)c(C(N)=O)s3)c2cc1OC + CCNC(=O)c1noc(-c2cc(C(C)C)c(O)cc2O)c1-c1ccc(CN2CCOCC2)cc1 [Luminespib] (partner 0.01 µM)
# Procedure, shortened: as §1
# [9] = compound: COc1cc2ncn(-c3cc(OCc4ccccc4C(F)(F)F)c(C(N)=O)s3)c2cc1OC + Nc1ncn([C@H]2C[C@H](O)[C@@H](CO)O2)c(=O)n1 [Decitabine] (partner 2 µM)
# Procedure, shortened: as §1
# [10] = compound: COc1cc2ncn(-c3cc(OCc4ccccc4C(F)(F)F)c(C(N)=O)s3)c2cc1OC + COc1cccc2cc(-c3nc([C@H]4CC[C@H](C(=O)O)CC4)n4ncnc(N)c34)[nH]c12 [OSI-027] (partner 0.5 µM)
# Procedure, shortened: as §1
# [11] = compound: COc1cc2ncn(-c3cc(OCc4ccccc4C(F)(F)F)c(C(N)=O)s3)c2cc1OC + N=C(N)NC(=N)NCCc1ccccc1 [Phenformin] (partner 250 µM)
# Procedure, shortened: as §1
# [12] = compound: COc1cc2ncn(-c3cc(OCc4ccccc4C(F)(F)F)c(C(N)=O)s3)c2cc1OC + NC(=O)Nc1cc(-c2cccc(F)c2)sc1C(=O)N[C@H]1CCCNC1 [AZD7762] (partner 0.2 µM)
# Procedure, shortened: as §1
# [13] = compound: COc1cc2ncn(-c3cc(OCc4ccccc4C(F)(F)F)c(C(N)=O)s3)c2cc1OC + O=C(CCCCCCC(=O)Nc1ccccc1)NO [Vorinostat] (partner 1 µM)
# Procedure, shortened: as §1
# [14] = compound: COc1cc2ncn(-c3cc(OCc4ccccc4C(F)(F)F)c(C(N)=O)s3)c2cc1OC + CC(=O)Nc1cccc(-n2c(=O)n(C3CC3)c(=O)c3c(Nc4ccc(I)cc4F)n(C)c(=O)c(C)c32)c1 [Trametinib] (partner 0.02 µM)
# Procedure, shortened: as §1
# [15] = compound: COc1cc2ncn(-c3cc(OCc4ccccc4C(F)(F)F)c(C(N)=O)s3)c2cc1OC + CS(=O)(=O)N1CCN(Cc2cc3nc(-c4cccc5[nH]ncc45)nc(N4CCOCC4)c3s2)CC1 [Pictilisib] (partner 1 µM)
# Procedure, shortened: as §1
# [16] = compound: COc1cc2ncn(-c3cc(OCc4ccccc4C(F)(F)F)c(C(N)=O)s3)c2cc1OC + CS(=O)(=O)CCNCc1ccc(-c2ccc3ncnc(Nc4ccc(OCc5cccc(F)c5)c(Cl)c4)c3c2)o1 [Lapatinib] (partner 2 µM)
# Procedure, shortened: as §1
# [17] = compound: COc1cc2ncn(-c3cc(OCc4ccccc4C(F)(F)F)c(C(N)=O)s3)c2cc1OC + C[C@]1(O)C[C@@H](c2nc(-c3ccc4ccc(-c5ccccc5)nc4c3)c3c(N)nccn32)C1 [Linsitinib] (partner 1 µM)
# Procedure, shortened: as §1
# [18] = compound: COc1cc2ncn(-c3cc(OCc4ccccc4C(F)(F)F)c(C(N)=O)s3)c2cc1OC + C[C@@H](Oc1cc(-c2cnn(C3CCNCC3)c2)cnc1N)c1c(Cl)ccc(F)c1Cl [Crizotinib] (partner 1 µM)
# Procedure, shortened: as §1
# [19] = compound: COc1cc2ncn(-c3cc(OCc4ccccc4C(F)(F)F)c(C(N)=O)s3)c2cc1OC + CC(C)C[C@H](NC(=O)[C@H](Cc1ccccc1)NC(=O)c1cnccn1)B(O)O [Bortezomib] (partner 0.002 µM)
# Procedure, shortened: as §1
# [20] = compound: COc1cc2ncn(-c3cc(OCc4ccccc4C(F)(F)F)c(C(N)=O)s3)c2cc1OC + Cc1nc(NC(=O)N2CCC[C@H]2C(N)=O)sc1-c1ccnc(C(C)(C)C(F)(F)F)c1 [Alpelisib] (partner 2 µM)
# Procedure, shortened: as §1
# [21] = compound: COc1cc2ncn(-c3cc(OCc4ccccc4C(F)(F)F)c(C(N)=O)s3)c2cc1OC + CC1(C)CCC(c2ccc(Cl)cc2)=C(CN2CCN(c3ccc(C(=O)NS(=O)(=O)c4ccc(N[C@H](CCN5CCOCC5)CSc5ccccc5)c(S(=O)(=O)C(F)(F)F)c4)cc3)CC2)C1 [Navitoclax] (partner 0.5 µM)
# Procedure, shortened: as §1
cell line,measurement,setting,value
SW 900,relative viability,[1]; 0.05 µM,0.91
same,relative viability,[1]; 0.1581 µM,0.827
same,relative viability,[1]; 0.5 µM,0.638
same,relative viability,[1]; 1.581 µM,0.275
same,relative viability,[1]; 5 µM,0.176
same,relative viability,[2]; first compound 0.05 µM,0.685
same,relative viability,[2]; first compound 0.1581 µM,0.661
same,relative viability,[2]; first compound 0.5 µM,0.277
same,relative viability,[2]; first compound 1.581 µM,0.253
same,relative viability,[2]; first compound 5 µM,0.244
same,relative viability,[3]; first compound 0.05 µM,0.857
same,relative viability,[3]; first compound 0.1581 µM,0.818
same,relative viability,[3]; first compound 0.5 µM,0.7
same,relative viability,[3]; first compound 1.581 µM,0.41
same,relative viability,[3]; first compound 5 µM,0.169
same,relative viability,[4]; first compound 0.05 µM,0.453
same,relative viability,[4]; first compound 0.1581 µM,0.544
same,relative viability,[4]; first compound 0.5 µM,0.408
same,relative viability,[4]; first compound 1.581 µM,0.254
same,relative viability,[4]; first compound 5 µM,0.187
same,relative viability,[5]; first compound 0.05 µM,0.478
same,relative viability,[5]; first compound 0.1581 µM,0.5
same,relative viability,[5]; first compound 0.5 µM,0.499
same,relative viability,[5]; first compound 1.581 µM,0.399
same,relative viability,[5]; first compound 5 µM,0.257
same,relative viability,[6]; first compound 0.05 µM,0.545
same,relative viability,[6]; first compound 0.1581 µM,0.604
same,relative viability,[6]; first compound 0.5 µM,0.5
same,relative viability,[6]; first compound 1.581 µM,0.328
same,relative viability,[6]; first compound 5 µM,0.0938
same,relative viability,[7]; first compound 0.05 µM,0.778
same,relative viability,[7]; first compound 0.1581 µM,0.892
same,relative viability,[7]; first compound 0.5 µM,0.601
same,relative viability,[7]; first compound 1.581 µM,0.201
same,relative viability,[7]; first compound 5 µM,0.171
same,relative viability,[8]; first compound 0.05 µM,0.183
same,relative viability,[8]; first compound 0.1581 µM,0.165
same,relative viability,[8]; first compound 0.5 µM,0.205
same,relative viability,[8]; first compound 1.581 µM,0.171
same,relative viability,[8]; first compound 5 µM,0.16
same,relative viability,[9]; first compound 0.05 µM,0.482
same,relative viability,[9]; first compound 0.1581 µM,0.447
same,relative viability,[9]; first compound 0.5 µM,0.425
same,relative viability,[9]; first compound 1.581 µM,0.354
same,relative viability,[9]; first compound 5 µM,0.256
same,relative viability,[10]; first compound 0.05 µM,0.59
same,relative viability,[10]; first compound 0.1581 µM,0.618
same,relative viability,[10]; first compound 0.5 µM,0.364
same,relative viability,[10]; first compound 1.581 µM,0.173
same,relative viability,[10]; first compound 5 µM,0.093
same,relative viability,[11]; first compound 0.05 µM,0.538
same,relative viability,[11]; first compound 0.1581 µM,0.503
same,relative viability,[11]; first compound 0.5 µM,0.53
same,relative viability,[11]; first compound 1.581 µM,0.33
same,relative viability,[11]; first compound 5 µM,0.14
same,relative viability,[12]; first compound 0.05 µM,0.575
same,relative viability,[12]; first compound 0.1581 µM,0.538
same,relative viability,[12]; first compound 0.5 µM,0.565
same,relative viability,[12]; first compound 1.581 µM,0.279
same,relative viability,[12]; first compound 5 µM,0.156
same,relative viability,[13]; first compound 0.05 µM,0.483
same,relative viability,[13]; first compound 0.1581 µM,0.417
same,relative viability,[13]; first compound 0.5 µM,0.416
same,relative viability,[13]; first compound 1.581 µM,0.287
same,relative viability,[13]; first compound 5 µM,0.154
same,relative viability,[14]; first compound 0.05 µM,0.639
same,relative viability,[14]; first compound 0.1581 µM,0.778
same,relative viability,[14]; first compound 0.5 µM,0.649
same,relative viability,[14]; first compound 1.581 µM,0.433
same,relative viability,[14]; first compound 5 µM,0.124
NCI-H1299,relative viability,[1]; 0.05 µM,1.01
same,relative viability,[1]; 0.1581 µM,1.02
same,relative viability,[1]; 0.5 µM,0.718
same,relative viability,[1]; 1.581 µM,0.269
same,relative viability,[1]; 5 µM,0.318
same,relative viability,[3]; first compound 0.05 µM,1.1
same,relative viability,[3]; first compound 0.1581 µM,1.07
same,relative viability,[3]; first compound 0.5 µM,0.664
same,relative viability,[3]; first compound 1.581 µM,0.255
same,relative viability,[3]; first compound 5 µM,0.257
same,relative viability,[15]; first compound 0.05 µM,0.77
same,relative viability,[15]; first compound 0.1581 µM,0.699
same,relative viability,[15]; first compound 0.5 µM,0.18
same,relative viability,[15]; first compound 1.581 µM,0.142
same,relative viability,[15]; first compound 5 µM,0.132
same,relative viability,[7]; first compound 0.05 µM,0.962
same,relative viability,[7]; first compound 0.1581 µM,0.921
same,relative viability,[7]; first compound 0.5 µM,0.431
same,relative viability,[7]; first compound 1.581 µM,0.223
same,relative viability,[7]; first compound 5 µM,0.19
same,relative viability,[16]; first compound 0.05 µM,0.984
same,relative viability,[16]; first compound 0.1581 µM,0.92
same,relative viability,[16]; first compound 0.5 µM,0.599
same,relative viability,[16]; first compound 1.581 µM,0.314
same,relative viability,[16]; first compound 5 µM,0.312
same,relative viability,[17]; first compound 0.05 µM,0.984
same,relative viability,[17]; first compound 0.1581 µM,1.12
same,relative viability,[17]; first compound 0.5 µM,0.636
same,relative viability,[17]; first compound 1.581 µM,0.245
same,relative viability,[17]; first compound 5 µM,0.253
same,relative viability,[18]; first compound 0.05 µM,0.982
same,relative viability,[18]; first compound 0.1581 µM,0.939
same,relative viability,[18]; first compound 0.5 µM,0.572
same,relative viability,[18]; first compound 1.581 µM,0.305
same,relative viability,[18]; first compound 5 µM,0.329
same,relative viability,[19]; first compound 0.05 µM,0.985
same,relative viability,[19]; first compound 0.1581 µM,1.01
same,relative viability,[19]; first compound 0.5 µM,0.856
same,relative viability,[19]; first compound 1.581 µM,0.263
same,relative viability,[19]; first compound 5 µM,0.675
same,relative viability,[20]; first compound 0.05 µM,1.04
same,relative viability,[20]; first compound 0.1581 µM,0.979
same,relative viability,[20]; first compound 0.5 µM,0.788
same,relative viability,[20]; first compound 1.581 µM,0.326
same,relative viability,[20]; first compound 5 µM,0.654
same,relative viability,[21]; first compound 0.05 µM,1.06
same,relative viability,[21]; first compound 0.1581 µM,1.09
same,relative viability,[21]; first compound 0.5 µM,0.833
same,relative viability,[21]; first compound 1.581 µM,0.232
same,relative viability,[21]; first compound 5 µM,0.238
